Results: publication PMC8642284 (Structure (London, England : 1993), 2021)

T1: ACAT2 (Homo sapiens, UniProt O75908)
T1 sequence (O75908 1-522): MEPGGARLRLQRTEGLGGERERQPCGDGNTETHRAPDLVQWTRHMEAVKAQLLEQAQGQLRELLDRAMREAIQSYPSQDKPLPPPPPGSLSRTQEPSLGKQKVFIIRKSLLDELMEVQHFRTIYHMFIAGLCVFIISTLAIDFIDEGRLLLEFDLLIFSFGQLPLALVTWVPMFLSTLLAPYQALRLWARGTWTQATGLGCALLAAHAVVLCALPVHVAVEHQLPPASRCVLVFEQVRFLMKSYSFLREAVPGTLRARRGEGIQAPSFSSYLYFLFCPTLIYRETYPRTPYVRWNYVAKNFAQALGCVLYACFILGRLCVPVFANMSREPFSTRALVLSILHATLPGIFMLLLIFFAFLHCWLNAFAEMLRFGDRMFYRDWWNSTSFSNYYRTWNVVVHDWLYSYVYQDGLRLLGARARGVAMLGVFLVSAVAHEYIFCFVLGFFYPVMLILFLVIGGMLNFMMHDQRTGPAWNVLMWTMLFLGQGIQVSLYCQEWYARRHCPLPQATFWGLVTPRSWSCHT

B1: human ACAT2 (acyl-CoA:cholesterol acyltransferase 2) (enzyme)
chain: EPGGARLRLQRTEGLGGERERQPCGDGNTETHRAPDLVQWTRHMEAVKAQLLEQAQGQLRELLDRAMREAIQSYPSQDKPLPPPPPGSLSRTQEPSLGKQKVFIIRKSLLDELMEVQHFRTIYHMFIAGLCVFIISTLAIDFIDEGRLLLEFDLLIFSFGQLPLALVTWVPMFLSTLLAPYQALRLWARGTWTQATGLGCALLAAHAVVLCALPVHVAVEHQLPPASRCVLVFEQVRFLMKSYSFLREAVPGTLRARRGEGIQAPSFSSYLYFLFCPTLIYRETYPRTPYVRWNYVAKNFAQALGCVLYACFILGRLCVPVFANMSREPFSTRALVLSILHATLPGIFMLLLIFFAFLHCWLNAFAEMLRFGDRMFYRDWWNSTSFSNYYRTWNVVVHDWLYSYVYQDGLRLLGARARGVAMLGVFLVSAVAHEYIFCFVLGFFYPVMLILFLVIGGMLNFMMHDQRTGPAWNVLMWTMLFLGQGIQVSLYCQEWYARRHCPLPQATFWGLVTPRSWSCHT

Columns and labels:
[1] = molecular target: T1, ACAT2; assay: cryo-EM structure; type: biochemical
[2] = molecular target: the molecule itself; assay: cryo-EM structure

| Molecule | IC50 [1] | stoichiometry N [2] |
| --- | --- | --- |
| CC(C)c1cccc(C(C)C)c1NC(=O)NCC1(c2ccc(N(C)C)cc2)CCCC1 [nevanimibe] | 710 nM | – |
| B1 | – | 4 |
